The results in this text go back to PubChem BioAssay AID330 (DTP/NCI, 2004).

Each structure is given as a SMILES string. “And” between values parts separate entries of the source, which are not always exact repeats. Equal values may be shown once. Toxic doses and inconclusive results are not listed.

In the assay the test system is P388 leukemia ip, CD2F1 mice, survival T/C. Briefly: NCI In Vivo Anticancer Drug Screen. Data for tumor model P388 Leukemia (intraperitoneal) in CD2F1 (CDF1) mice. Particulars: endpoint: median survival time, higher = longer survival. In outline:
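Mice carrying the transplanted tumor received test compound or vehicle. Survival was recorded in each group, and the value is the treated-group measurement divided by that of the vehicle-treated control group.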

Setting [1] is: dose: 50.0 mg/kg/injection, schedule: Q01DX005 (ip), vehicle: saline with Tween-80.
Setting [2] is: dose: 100.0 mg/kg/injection, schedule: Q01DX005 (ip), vehicle: saline with Tween-80.
Setting [3] is: dose: 50.0 mg/kg/injection, schedule: Q01DX005 (ip), vehicle: Klucel (hydroxypropylcellulose) (HPC).
The mark [4] stands for this setting: dose: 100.0 mg/kg/injection, schedule: Q01DX005 (ip), vehicle: Klucel (hydroxypropylcellulose) (HPC).
Where [5] appears, read: dose: 200.0 mg/kg/injection, schedule: Q01DX005 (ip), vehicle: Klucel (hydroxypropylcellulose) (HPC).
Setting [6] is: dose: 25.0 mg/kg/injection, schedule: Q01DX009 (ip), vehicle: Klucel (hydroxypropylcellulose) (HPC).
Setting [7] is: dose: 50.0 mg/kg/injection, schedule: Q01DX009 (ip), vehicle: Klucel (hydroxypropylcellulose) (HPC).
[8] abbreviates: dose: 100.0 mg/kg/injection, schedule: Q01DX009 (ip), vehicle: Klucel (hydroxypropylcellulose) (HPC).
[9] abbreviates: dose: 12.5 mg/kg/injection, schedule: Q01DX009 (ip), vehicle: saline.
Where [10] appears, read: dose: 25.0 mg/kg/injection, schedule: Q01DX009 (ip), vehicle: saline.
Setting [11] is: dose: 50.0 mg/kg/injection, schedule: Q01DX009 (ip), vehicle: saline.
[12] abbreviates: dose: 6.25 mg/kg/injection, schedule: Q01DX009 (ip), vehicle: Klucel (hydroxypropylcellulose) (HPC).
Setting [13] is: dose: 12.5 mg/kg/injection, schedule: Q01DX009 (ip), vehicle: Klucel (hydroxypropylcellulose) (HPC).
[14] abbreviates: dose: 200.0 mg/kg/injection, schedule: Q01DX005 (ip), vehicle: saline with Tween-80.
Where [15] appears, read: dose: 60.0 mg/kg/injection, schedule: Q01DX005 (ip), vehicle: Klucel (hydroxypropylcellulose) (HPC).

Turning to `CNC(=O)Oc1cc(C)c[n+]([O-])c1`, the T/C is 100 % of control (dose: 50.0 mg/kg/injection, schedule: Q01DX005 (ip), vehicle: saline); 104 % of control (dose: 100.0 mg/kg/injection, schedule: Q01DX005 (ip), vehicle: saline); 104 % of control (dose: 200.0 mg/kg/injection, schedule: Q01DX005 (ip), vehicle: saline).

With `CN(C)c1ncnc2c1ccn2C1OC(CO)C(O)C1O` (configuration not stated), the T/C is, setting by setting: (dose: 6.25 mg/kg/injection, schedule: Q01DX005 (ip), vehicle: Klucel (hydroxypropylcellulose) (HPC)) 106 % of control; (dose: 12.5 mg/kg/injection, schedule: Q01DX005 (ip), vehicle: Klucel (hydroxypropylcellulose) (HPC)) 109 % of control; (dose: 25.0 mg/kg/injection, schedule: Q01DX005 (ip), vehicle: Klucel (hydroxypropylcellulose) (HPC)) 117 % of control.

For the compound `Nc1nc2c(nnn2C2OC(CO)C(O)C2O)c(=O)[nH]1` (configuration not stated), the T/C runs as follows: under setting [1], 113 % of control; under setting [2], 101 % of control.

`CCCN(CCC)C(=O)C(c1ccccc1)C1(O)CCCC1` (configuration not stated): the T/C is 101 % of control under setting [3], 102 % of control under setting [4] and 102 % of control under setting [5].

As for `NC1C[S][Sn]2([O]C1=O)[O]C(=O)C(N)C[S]2` (configuration not stated), the T/C under setting [3] is 99 % of control, the T/C under setting [4] was 100 % of control and the T/C under setting [5] was 100 % of control.

Take `O=C(CBr)CC(O)(C(F)(F)F)C(F)(F)F`: the T/C by setting is: (dose: 3.0 mg/kg/injection, schedule: Q04DX003 (ip), vehicle: saline) 100 % of control; (dose: 6.0 mg/kg/injection, schedule: Q04DX003 (ip), vehicle: saline) 100 % of control; (dose: 12.0 mg/kg/injection, schedule: Q04DX003 (ip), vehicle: saline) 91 % of control.

`C[CH2][Sn]([CH2]C)([CH2]C)[NH]S(=O)(=O)c1ccc(C)cc1`: the T/C (dose: 3.12 mg/kg/injection, schedule: Q01DX009 (ip), vehicle: Klucel (hydroxypropylcellulose) (HPC)) was 105 % of control.

Regarding `C=C1CCC(OC(C)=O)C2(C)C(OC(C)=O)CC3OC3(C)C2C(OC(C)=O)C2C(C)C(=O)OC2C1Cl` (configuration not stated), the T/C is 99 % of control under setting [6]; 97 % of control under setting [7]; 96 % of control under setting [8]; 93 % of control (dose: 200.0 mg/kg/injection, schedule: Q01DX009 (ip), vehicle: Klucel (hydroxypropylcellulose) (HPC)).

In the case of `CC(=O)N1C=CN(C(C)=O)C1c1c[nH]c2ccccc12`, the T/C is 98 % of control under setting [3], 104 % of control under setting [4] and 99 % of control under setting [5].

Take `O=C1OCC=C1Sc1ccccc1`: the T/C (dose: 60.0 mg/kg/injection, schedule: Q01DX005 (ip), vehicle: saline with Tween-80) is 106 % of control and the T/C (dose: 120.0 mg/kg/injection, schedule: Q01DX005 (ip), vehicle: saline with Tween-80) was 108 % of control.

As to `O=S(=O)(O)O.[N-]=C(N)/N=C(\[NH-])N.[N-]=C(N)/N=C(\[NH-])N.[N-]=C(N)NC(=[N-])N.[Rh+3]`, the T/C is 100 % of control under setting [9], 103 % of control under setting [10] and 107 % of control under setting [11].

On to `O=C1CN(/N=C/c2ccc(-c3cccc(C(F)(F)F)c3)o2)C(=O)N1`, for which the T/C is 101 % of control (dose: 50.0 mg/kg/injection, schedule: Q04DX002 (ip), vehicle: saline with Tween-80) and 109 % of control (dose: 100.0 mg/kg/injection, schedule: Q04DX002 (ip), vehicle: saline with Tween-80).

Take `CC(C)=NNS(=O)(=O)c1ccccc1`: the T/C is 108 % of control under setting [12]; 110 % of control under setting [13]; 100 % of control under setting [6]; 110 % of control under setting [7]; 108 % of control under setting [8].

For the compound `Cc1ccc(C(CC(=O)O)C(N)C(=O)O)cc1` (configuration not stated), the T/C is 98 % of control under setting [9]; 88 % of control under setting [10]; 95 % of control and 96 % of control under setting [11]; 100 % of control (dose: 100.0 mg/kg/injection, schedule: Q01DX009 (ip), vehicle: saline); 95 % of control (dose: 200.0 mg/kg/injection, schedule: Q01DX009 (ip), vehicle: saline).

Regarding `CN(C)c1ccc(-c2nc3c4ccccc4c4ccccc4c3[nH]2)cc1`, the T/C (dose: 50.0 mg/kg/injection, schedule: Q01DX009 (ip), vehicle: saline with Tween-80) is 105 % of control; the T/C (dose: 100.0 mg/kg/injection, schedule: Q01DX009 (ip), vehicle: saline with Tween-80) was 90 % of control; the T/C (dose: 200.0 mg/kg/injection, schedule: Q01DX009 (ip), vehicle: saline with Tween-80) was 87 % of control.

As to `c1ccc(C2=NN=C(c3ccccc3)N(c3ccccc3)N2)cc1`, the T/C is 105 % of control under setting [1], 97 % of control under setting [2] and 97 % of control under setting [14].

Consider `O=C(O)c1cccc(-c2nn[nH]n2)c1`, for which the T/C is, setting by setting: under setting [3], 93 % of control; under setting [4], 90 % of control; under setting [5], 102 % of control.

Take `O=[N+]([O-])c1cnc2n(O)cccc1-2`: the T/C (dose: 100.0 mg/kg/injection, schedule: Q01DX001 (ip), vehicle: saline with Tween-80) was 90 % of control and the T/C (dose: 200.0 mg/kg/injection, schedule: Q01DX001 (ip), vehicle: saline with Tween-80) is 87 % of control.

As for `COc1cc(NS(C)(=O)=O)ccc1Nc1c2ccc(N(C)C)cc2nc2cc(N(C)C)ccc12`, the T/C (dose: 7.5 mg/kg/injection, schedule: Q01DX005 (ip), vehicle: Klucel (hydroxypropylcellulose) (HPC)) is 162 % of control; the T/C (dose: 15.0 mg/kg/injection, schedule: Q01DX005 (ip), vehicle: Klucel (hydroxypropylcellulose) (HPC)) is 168 % of control and 173 % of control; the T/C (dose: 30.0 mg/kg/injection, schedule: Q01DX005 (ip), vehicle: Klucel (hydroxypropylcellulose) (HPC)) is 174 % of control and 182 % of control; the T/C under setting [15] was 98 % of control and 86 % of control.

On to `O=CC(O)C(O)C(O)C(O)CO` (configuration not stated), for which the T/C was 108 % of control (dose: 12.5 mg/kg/injection, schedule: Q04DX003 (ip), vehicle: saline); 100 % of control (dose: 25.0 mg/kg/injection, schedule: Q04DX003 (ip), vehicle: saline); 108 % of control (dose: 50.0 mg/kg/injection, schedule: Q04DX003 (ip), vehicle: saline); 103 % of control (dose: 60.0 mg/kg/injection, schedule: Q01DX005 (ip), vehicle: saline); 105 % of control (dose: 120.0 mg/kg/injection, schedule: Q01DX005 (ip), vehicle: saline); 102 % of control (dose: 240.0 mg/kg/injection, schedule: Q01DX005 (ip), vehicle: saline). Further, the T/C is 100 % of control (dose: 1.0 % in 0.5 ml injection vol, schedule: Q01DX009 (ip), vehicle: water); 103 % of control (dose: 2.0 % in 0.5 ml injection vol, schedule: Q01DX009 (ip), vehicle: water); 101 % of control (dose: 4.0 % in 0.5 ml injection vol, schedule: Q01DX009 (ip), vehicle: water); 100 % of control and 105 % of control (dose: 8.0 % in 0.5 ml injection vol, schedule: Q01DX009 (ip), vehicle: water); 103 % of control and 112 % of control (dose: 16.0 % in 0.5 ml injection vol, schedule: Q01DX009 (ip), vehicle: water); 98 % of control and 99 % of control (dose: 32.0 % in 0.5 ml injection vol, schedule: Q01DX009 (ip), vehicle: water).

For the compound `CCCCCCCCCCCCOCC(O)Cn1cnc2c(N)ncnc21` (configuration not stated), the T/C under setting [3] is 98 % of control, the T/C under setting [4] was 94 % of control and the T/C under setting [5] is 94 % of control.

Consider `CCOC1[N-]CC(C)C(OCC)N1.CCOC1[N-]CC(C)C(OCC)N1.[Cl][Pd][Cl]` (configuration not stated), for which the T/C was 102 % of control under setting [15]; 106 % of control (dose: 120.0 mg/kg/injection, schedule: Q01DX005 (ip), vehicle: Klucel (hydroxypropylcellulose) (HPC)); 107 % of control (dose: 240.0 mg/kg/injection, schedule: Q01DX005 (ip), vehicle: Klucel (hydroxypropylcellulose) (HPC)).

Turning to `COc1cccc(C=Nc2ccccc2O)c1O.[O]=[V]`, the T/C is, setting by setting: under setting [12], 98 % of control and 107 % of control; under setting [13], 106 % of control and 115 % of control; under setting [6], 100 % of control and 118 % of control; under setting [7], 91 % of control.

Turning to `COc1cc([C@@H]2c3cc(OC(C)=O)c(OC)cc3C[C@@H]3C(=O)OC[C@@H]23)ccc1OC(C)=O`, the T/C by setting is: under setting [1], 98 % of control; under setting [2], 93 % of control; under setting [14], 93 % of control.
